Data: paper PMC8092209, “Structural Basis of Ligand Selectivity by a Bacterial Adhesin Lectin Involved in Multispecies Biofilm Formation” (mBio, 2021)
Values joined by “and” are separate entries in the source; they are usually repeats but may differ in a detail not shown here. Equal values may be shown once. Read-outs that look alike come from different tables or passages of the source.

Assays:
Format in all cases: binding
MpPA14 [1] = biological target: T1, MpPA14 (Marinomonas primoryensis, UniProt A1YIY3); test: Dextran-based comparative competition assay (MpPA14)
Source text: To gain insight into the binding specificity of MpPA14, we investigated the relative affinity of various monosaccharides for the lectin by a comparative competition assay ([12]). MpPA14 bound to Superdex resin was competitively released into solution by the progressive addition of free sugars. The released protein concentrations measured by absorbance at 280 nm were plotted as a function of free sugar concentration to produce semiquantitative binding curves (Fig. 1A and B). The apparent dissociation constant (Kdapp) calculated from these binding curves was used as a relative measure of affinity for each assayed sugar (Table 1). […] D-Ribose bound […] more strongly than its derivative 2-deoxy-D-ribose (Kdapp of 6.8 mM as opposed to 18 mM; Fig. 1B and Table 1).
The dextran resin competition assay was performed as previously described for MhPA14 ([12]). Briefly, Superdex 200 (S200) resin was washed twice with 50 mM Tris-HCl (pH 9), 150 mM NaCl, and 5 mM CaCl2. One ml of 1 mg/ml MpPA14 with green fluorescent protein (GFP) fused to its N terminus (GFP-MpPA14) or VcPA14 labeled with FITC was suspended with 300 μl of equilibrated Superdex 200 (S200) resin. Following an incubation period with gentle mixing, the S200 resin bound with GFP-MpPA14 was pelleted by centrifugation. The pellet was washed twice with 50 mM Tris-HCl (pH 9), 150 mM NaCl, and 5 mM CaCl2, and the A280 of the supernatant from the second wash was used as the baseline reading. Next, after resuspension in the same buffer, aliquots of 1.67 μmol saccharide were sequentially added to the solution six or seven times, with the A280 of the supernatant being measured after each addition to quantify the release of lectin. The final addition of saccharide was […]. Data from the dextran affinity assay were plotted using GraphPad Prism after subtracting the background. Next, the data were fitted to a nonlinear regression of one-site-specific binding, which follows the model y/Bmax = x/(Kd + x), with Bmax as the maximum specific binding and Kd as the equilibrium binding constant.

MpPA14 [2] = biological target: T1, MpPA14; test: First glycan array (fungal, bacterial and plant polysaccharide array set 2, Imperial College); settings: for binding to MpPA14 in first glycan array (in words): GFP-MpPA14; for Binding of MpPA14 (RFUs): GFP-MpPA14 50 μg/ml, Alexa Fluor 647 anti-GFP antibody, mean of duplicates
MpPA14 [3] = biological target: T1, MpPA14; test: Second glycan array (32 polysaccharides, Max Planck Institute for Marine Microbiology); settings: for Binding of MpPA14 (RFUs): normalized signal intensity, maximal mean set to 100, cutoff of 5
Source text: To expand the repertoire of glycans beyond glucans and mannans, we performed a second focused microarray composed of 32 polysaccharides found in microbes such as fungi and bacteria, as well as in macroalgae and plants (Fig. 4B). […] In addition, MpPA14 interacted avidly with fucoidans from macroalgae. […] This conformer is not present in the arabinan polymer composed of 1,5-linked α-L-arabino-furanoses, which are then not free to transition to the pyranose form. Similarly, since the MpPA14 binds galactose via the 1,2-diol (β-anomer) (Fig. 3H), the lectin cannot interact with galactans, as they are polymers of β-1,4-D-galactose (Fig. 4B and Table S5).
The second glycan array was performed at the Max Planck Institute for Marine Microbiology (Bremen, Germany). The array contained duplicates of 32 polysaccharides, including those from macroalgae, bacteria, fungi, and land plants (see details in Table S5 in the supplemental material). N-terminally His-tagged MpPA14 was incubated with the array, and binding of the lectin to the polysaccharides was detected by an anti-His tag secondary antibody conjugated to alkaline phosphatase (Sigma-Aldrich). Microarray probing and quantification were performed as previously described ([45]). Maximal mean (average of the duplicates) signal intensity was set to 100, and the rest of values were normalized accordingly. A cutoff of 5 was applied ([58]).

[4] = GFP-MpPA14 bound to Superdex 200 resin released by free sugar, A280, pH 9, 5 mM CaCl2, – = no detectable binding (footnote a), read-out: Kdapp (apparent dissociation constant)

T1 sequence (A1YIY3 entry or part of it): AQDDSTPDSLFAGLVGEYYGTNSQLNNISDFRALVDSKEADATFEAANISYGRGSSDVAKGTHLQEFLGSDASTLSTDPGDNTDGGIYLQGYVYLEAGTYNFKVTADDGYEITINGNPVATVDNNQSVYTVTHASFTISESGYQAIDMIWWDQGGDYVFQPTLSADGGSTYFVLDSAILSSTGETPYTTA

| Molecule | Kd (MpPA14 [1]) | binding to MpPA14 in first glycan array (in words) (MpPA14 [2]) | Binding of MpPA14 (RFUs) (MpPA14 [2]) | also measured |
| --- | --- | --- | --- | --- |
| O=C[C@H](O)[C@@H](O)[C@@H](O)[C@H](O)CO [Galactose, D-galactose] | 4100 µM |  |  |  |
| Grifolan (β-(1→3)-D-glucan backbone, highly branched oligomers) |  | bound most avidly | 39935 RFUs |  |
| COC1OC(CO)C(O)C(O)C1O [Methyl-α-glucose, methyl-α-D-glucose] |  |  |  | Kd (MpPA14 [1]; [4]): 2100 µM |
| Pullulan (α-(1→4)(1→6)-D-glucan) |  | bound most avidly | 58106 RFUs | Binding of MpPA14 (RFUs) (MpPA14 [3]): 37 RFUs |
| Glucurono-XyloMannan (α-(1→3)-Mannan with Xyl, GlcA and Fuc branches) |  | negligible or no detectable binding | 75 RFUs | Binding of MpPA14 (RFUs) (MpPA14 [3]): 0 RFUs |
| β-glucan Mixed β-(1→3)/β-(1→4)-D-glucan [β-glucan (Barley)] |  | negligible or no detectable binding | 23 RFUs | Binding of MpPA14 (RFUs) (MpPA14 [3]): 0 RFUs |
| GN6-AO (chitin, β-1→4-GlcNAc) |  | negligible or no detectable binding | 178 RFUs |  |
| Mannan (α-(1→6)-D-mannan backbone, α-(1→2)-,α-(1→3)-mannan branches) [Mannan (Saccharomyces cerevisiae)] |  | weak binding | 3808 RFUs | binding to MpPA14 in second glycan array (in words) (MpPA14 [3]): no detectable interaction; Binding of MpPA14 (RFUs) (MpPA14 [3]): 0 RFUs |
| CO[C@@H]([C@H](O)[C@H](O)CO)[C@@H](O)C=O [3-O-methyl-glucose, 3-O-methyl-D-glucose] | 5700 µM |  |  |  |
| O=C[C@H](O)[C@H](O)[C@H](O)CO [Ribose, D-Ribose] |  |  |  | Kd (MpPA14 [1]; [4]): 6800 µM |
| PGPGG (β-(1→3)-D-glucan backbone, β-(1→3)-D-glucan branches) |  |  | 30143 RFUs |  |
| O=CC[C@@H](O)[C@H](O)[C@H](O)CO [2-Deoxy-glucose, 2-deoxy-glucose] | 1370 µM and 1400 µM |  |  |  |
| Mannoprotein (mannose rich) |  | negligible or no detectable binding | 0 RFUs |  |
| O=CC[C@H](O)[C@H](O)CO [2-Deoxy-ribose, 2-deoxy-D-ribose] | 18000 µM |  |  |  |
| OC1OC[C@H](O)[C@H](O)[C@H]1O (mixture of isomers) [L-Arabinose] | 2200 µM |  |  |  |
| β-glucan Mixed β-(1→3)/β-(1→4)-D-glucan [β-glucan (Oat)] |  | negligible or no detectable binding | 0 RFUs |  |
| Pustulan (β-(1→6)-D-glucan) [Pustulan (Umbilicaria papullosa)] |  |  | 1565 RFUs |  |
| O=C[C@H](O)[C@@H](O)[C@H](O)CO [Xylose] | 11000 µM |  |  |  |
| O[C@H]1[C@H](O)[C@@H](O)[C@H](O)[C@@H](O)[C@H]1O [Inositol, myo-inositol] | 2700 µM |  |  |  |
| N -Mannoprotein (α-1→6-mannan backbone with oligomeric α-(1→2)-, α-(1→3)-, and β-(1→2)-mannan branches |  | moderate lectin-glycan interactions | 17438 RFUs |  |
| OC[C@H]1OC(O)[C@@H](O)[C@@H](O)[C@@H]1O (stereo partly drawn) [Mannose, D-Mannose] | 1700 µM |  |  |  |
